Measured values: article PMC5773487, “Harnessing insulin- and leptin-induced oxidation of PTP1B for therapeutic development” (Nature Communications, 2018)
Entries after “also recorded” stand apart in the source; their conditions may differ.

What was measured:
PKC = conditions: called into question by refs 39, 40; cited from earlier work
[1] = system: insulin signaling in liver, leptin signaling in hypothalamus; assay: insulin and leptin signaling in liver and hypothalamus lysates of treated mice; format: in vivo; conditions: HFD mice
Method: Fig. 9 Chelerythrine improved metabolism and promoted insulin and leptin signaling in mice. a Body weight of male mice (C57bl6/J) fed high fat diet and treated with chelerythrine (3 mg kg^−1), protopine (3 mg kg^−1) or saline was monitored from the beginning of the treatment (10 weeks of age) until the study was terminated (14 weeks of age). Data represent the mean ± s.e.m. (n = 10 in each group). b HFD fed 14-week-old male mice treated with saline or chelerythrine were administered D-glucose (2 mg g^−1 body weight), and blood glucose was monitored over the defined time. Data represent the mean ± s.e.m. (n = 10 in each group) and statistical analysis was performed using two-way ANOVA (*p < 0.05, **p < 0.01). c HFD fed 14-week-old male mice treated with saline or chelerythrine were administered insulin (0.75 mU g^−^1 body weight), and blood glucose was monitored over the defined time. Data represent mean ± s.e.m. (n = 10 in each group) and statistical analysis was performed using two-way ANOVA (*p < 0.05). d Representative immunoblots showing insulin-induced tyrosine phosphorylation of IR-β and phosphorylation of AKT, and their corresponding total protein levels, in liver tissue lysates from 14-week-old male mice treated with saline, chelerythrine or protopine. For insulin stimulation, animals were treated with insulin (0.75 mU g^−1, i.p.) for 15 min. e Representative immunoblots showing leptin-induced tyrosine phosphorylation of JAK2 and corresponding total JAK2 levels in the hypothalamus tissue lysates from 14-week-old male mice treated with saline, chelerythrine or protopine. For leptin stimulation, animals were treated with leptin (1 mg kg^−^1, s.c.) for 15 min. All immunoblots are representative of tissue lysates generated from at least three independent animals for each condition (n = 3). Immunoblots were quantified using ImageJ software. Quantitation includes all independent data from the respective experiments and is presented as the mean ± s.e.m. d, e Statistical analysis was performed using two-way ANOVA (*p < 0.05)
Animal experiments were performed according to protocols approved by the Institutional Animal Use and Care Committee of Cold Spring Harbor laboratory. Ten week-old male C57bl6/J mice fed chow diet or high fat diet (D12492) were acclimatized for 10 days under standard conditions before experiments. Mice were intraperitoneally (i.p.) injected once daily with vehicle, 3 mg kg^−1 of chelerythrine or 3 mg kg^−1 of protopine for 30 days. Mice were killed after 6 h of fasting, and serum samples were collected to measure the metabolic parameters and tissue samples were collected for studying changes in signaling. No animals were excluded from the analysis.

[2] = molecular target: T1, reversibly oxidized PTP1B-mut2 (L37F/K39E/K41R) (Homo sapiens, UniProt P18031, K39E/K41R/L37F); assay: in vitro binding assay (anti-HA co-immunoprecipitation)
T1 construct: PTP1B (1–321) and TCPTP (1–317) cloned in pET21b vector were used as templates; 6xHis (C); made in house; host or cells: E. coli BL21 (DE3)-RIL
T1 sequence (P18031 1-321 L37F/K39E/K41R): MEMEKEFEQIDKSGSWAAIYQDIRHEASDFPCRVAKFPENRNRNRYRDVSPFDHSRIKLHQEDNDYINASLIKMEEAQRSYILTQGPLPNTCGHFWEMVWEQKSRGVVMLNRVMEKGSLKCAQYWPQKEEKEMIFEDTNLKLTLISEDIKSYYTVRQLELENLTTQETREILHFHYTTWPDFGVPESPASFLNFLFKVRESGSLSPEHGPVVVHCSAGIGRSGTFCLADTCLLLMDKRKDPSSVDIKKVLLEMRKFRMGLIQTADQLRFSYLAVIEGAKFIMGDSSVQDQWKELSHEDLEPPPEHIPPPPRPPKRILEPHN
Method: (§1) Purified proteins (wt or mutant form of PTP1B or TCPTP (50 nM)) were reversibly oxidized with […] H2O2 followed by a buffer exchange using 0.5 mL Zeba spin desalting columns 7K MWCO (Thermo Fisher Scientific) to remove H2O2. Increasing concentration of purified HA-tagged scFv45 (0–10 µM) was incubated with oxidized proteins in binding buffer (20 mM HEPES, pH 7.4, 300 mM NaCl, 0.05% BSA, 0.05% Tween-20) for 2 h at 4 °C. Anti-HA agarose (Roche, 50% slurry equilibrated in the binding buffer) was added and incubated for 1 h at 4 °C. Protein complexes bound to anti-HA beads were immunoprecipitated and washed three times; first with lysis buffer followed by two more washes with wash buffer (25 mM HEPES, 100 mM NaCl pH 7.4, 0.05% BSA, 0.05% Tween-20, and protease inhibitors). The complexes were separated by SDS-PAGE and analyzed by immunoblotting.

[3] = molecular target: T2, reversibly oxidized TCPTP-mut2 (F39L/E41K/R43K) (Homo sapiens, UniProt P17706, E41K/F39L/R43K); assay: as above
T2 construct: PTP1B (1–321) and TCPTP (1–317) cloned in pET21b vector were used as templates; 6xHis (C); made in house; host or cells: E. coli BL21 (DE3)-RIL
T2 sequence (P17706 1-317 F39L/E41K/R43K): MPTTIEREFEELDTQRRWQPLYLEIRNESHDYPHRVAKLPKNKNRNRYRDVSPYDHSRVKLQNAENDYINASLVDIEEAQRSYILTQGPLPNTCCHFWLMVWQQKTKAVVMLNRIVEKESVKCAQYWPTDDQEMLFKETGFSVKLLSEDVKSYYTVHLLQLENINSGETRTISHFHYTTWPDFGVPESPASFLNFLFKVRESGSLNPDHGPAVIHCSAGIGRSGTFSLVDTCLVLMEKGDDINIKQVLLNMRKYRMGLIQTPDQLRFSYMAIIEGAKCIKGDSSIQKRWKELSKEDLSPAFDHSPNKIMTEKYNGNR
Method: as §1

[4] = insulin 0.75 mU g−1 i.p. 15 min

Row | binding to reversibly oxidized PTP1B-mut2 [2] | binding to reversibly oxidized TCPTP-mut2 [3] | Molecule | inhibition of PKC (PKC) | AKT phosphorylation in liver [1, 4] | IR-β phosphorylation in liver [1, 4] | phosphorylation of JAK2 in hypothalamus ([1]; leptin 1 mg kg−1 s.c. 15 min)
1 |  |  | COc1ccc2c(c[n+](C)c3c4cc5c(cc4ccc23)OCO5)c1OC [chelerythrine] | inhibitor of PKC | enhanced | marked increase | enhanced phosphorylation of JAK2
2 |  |  | CN1CCc2cc3c(cc2C(=O)Cc2ccc4c(c2C1)OCO4)OCO3 [protopine] |  |  | not observed | 
3 | did not bind; also recorded: abrogated | promote binding | scFv45: recombinant conformation-sensor single-chain variable fragment antibody recognizing oxidized PTP1B (antibody, V domains shown) VH: TVTLDESGGGLQAPGGALSLVCKASGFTFSSYDMGWIRQAPGKGLEYVAGITDNGRYASYGSAVDGRATISRDNGQSSVRLQLNNLRAEDTGTYYCARDDGSGWTGNSIDAWGHGTEVIVSE VL: ALTQPSSVSANPGGTVKITCSGSSSAYGYGWYQQKSPGSAPVTVIYNNNKRPSNIPSRFSGSKSGSTGTLTITGVQAEDEAVYFCGSEDSSTDAIFGAGTTLTVL |  |  |  | 
